The experiment relates to keratinocytes. Kind of experiment: Effect of vanadium compounds on proliferation of keratinocytes (hair follicle culture, cell count). The conditions noted are these: 14 days culture; for amount of proliferated keratinocytes relative to the control situation: 1 mg/ml in basic SFK growth medium, 31° C., control = SFK medium lacking a vanadium compound. It counts as cell-based. On the procedure: Method: Hair follicles were transferred to a 24-well culture disk containing dSFK with 500 mg/ml penicillin (Life Technologies B.V. Breda, The Netherlands) and 0.25 μg/ml streptomycin (Life Technologies B.V. Breda, The Netherlands), and placed for 14 days in a culture medium at 31° C. in a humidified atmosphere containing 5% CO2. Three different culture medium were used: • Treatment group oxovanadium (OVAN): The culture medium is a composition comprising a basic SFK growth serum (purchased from the supplier SFK, Enschede The Netherlands) supplemented with either 1 mg/ml of OVAN. • Treatment group bis (maltolato) oxovanadium (BMOV): The culture medium is a composition comprising a basic SFK growth serum (purchased from the supplier SFK, Enschede The Netherlands) supplemented with either 1 mg/ml of BMOV. • Control group: The control situation consists of a composition comprising the SFK basic growth serum but without the vanadium compounds (i.e. OVAN or BMOV).
The respective culture media were carefully removed every three days and replaced by fresh culture media. The cells remained attached to the hair follicles during this culture period. After 14 days the culture medium was removed and replaced by a 0.5 mg/ml trypsin, 0.2 mg/ml EDTA (ethylene diaminetetraacetic acid) solution (Life Technologies B.V. Breda, The Netherlands), and incubated for 5 minutes at 37° C. in this medium. After this incubation period clusters of cells were released from the hair follicles. These were harvested by centrifugation at 300 g at 4° C. for 5 minutes in an Eppendorf 5804R Centrifuge (VWR International, The Netherlands). Number of cells were counted and expressed as amount of proliferated cells per ml of culture medium.

“Also recorded” adds a separate entry of the source.

For `Cc1occc(=O)c1[O-].Cc1occc(=O)c1[O-].[O]=[V+2]` [BMOV, bis(maltolato) oxovanadium], the “amount of proliferated keratinocytes relative to the control situation” value is recorded as “enhanced proliferation; also recorded: significantly increased”. Besides, the “proliferation of keratinocytes, BMOV compared with OVAN” value (1 mg/ml each) is “greater number of proliferated cells relative to treatment with OVAN; also recorded: more potent than OVAN”.

With oxovanadium, the “amount of proliferated keratinocytes relative to the control situation” value is on record as “enhanced proliferation; also recorded: significantly increased”.
